Test results as given in paper PMC7508162 (Frontiers in Pharmacology, 2020).
Entries after “also recorded” stand apart in the source; their conditions may differ. Read-outs that look alike come from different tables or passages of the source.

Biological target: T1, human CD39 (Homo sapiens, UniProt P49961)
T1 sequence (P49961 1-510): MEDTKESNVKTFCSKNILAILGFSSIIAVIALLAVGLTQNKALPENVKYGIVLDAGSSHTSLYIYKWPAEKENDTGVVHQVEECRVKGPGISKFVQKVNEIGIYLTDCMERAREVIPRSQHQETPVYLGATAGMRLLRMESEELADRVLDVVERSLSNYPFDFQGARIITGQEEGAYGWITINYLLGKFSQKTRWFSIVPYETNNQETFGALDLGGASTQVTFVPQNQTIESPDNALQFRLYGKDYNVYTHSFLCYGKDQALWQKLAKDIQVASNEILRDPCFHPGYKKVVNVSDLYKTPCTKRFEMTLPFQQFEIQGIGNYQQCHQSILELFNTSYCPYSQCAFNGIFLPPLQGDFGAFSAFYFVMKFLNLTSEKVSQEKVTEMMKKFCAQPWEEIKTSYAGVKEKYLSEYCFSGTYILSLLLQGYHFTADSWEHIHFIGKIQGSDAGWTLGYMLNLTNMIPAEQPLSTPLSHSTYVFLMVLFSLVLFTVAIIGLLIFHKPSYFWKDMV
Assay: Fluorescence capillary electrophoresis assay for CD39
Type: biochemical
Set-up: Human umbilical cord membrane preparations (250 ng) natively expressing high amounts of CD39; from tissue; host or cells: human umbilical cord membranes
Conditions: for Ki: human umbilical cord membrane preparation, n = 3, Cheng-Prusoff; for CD39 inhibition (in words) / IC50 (in words): human CD39; for inhibition at 10 µM: read-out: % inhibition at 10 µM
Description: They were minced and homogenized with a polytron in 95 mM NaCl, 0.1 mM phenylmethylsulfonyl fluoride (PMSF), and 45 mM Tris solution, pH 7.6. […] The pellets were resuspended in 5 mM Tris buffer solution, pH 8.0 and 10% glycerol. All purification steps were performed at 4°C. The preparations were kept at −80°C.
For inhibition screening, three independent experiments were performed. […] The reaction buffer contained 10 mM HEPES, 2 mM CaCl2, 1 mM MgCl2, pH 7.4. The samples were incubated at 37°C for 4 min, and the enzymatic reaction was terminated by heating at 90°C for 5 min. The solution was then diluted 1:20 with reaction buffer to perform separation of nucleotides by capillary electrophoresis (CE) followed by laser-induced fluorescence (LIF) detection. […] Three independent experiments were performed, and curves were calculated by GraphPad Prism 8 software (GraphPad software, San Diego, CA, USA).
Analysis was carried out using a P/ACE MDQ capillary electrophoresis system (Beckman Instruments, Fullerton, CA, USA). The separation was performed in a polyacrylamide-coated capillary [30 cm (10 cm effective length) × 50 µm (id), × 360 µm (od)]. Before each run, the capillary was rinsed with the background electrolyte [50 mM phosphate buffer (pH 6.5)] for 1 min at 30 psi. Samples were electrokinetically injected by applying a voltage of -6 kV for 30 s at the capillary outlet, and the fluorescent nucleotide derivatives were separated by voltage application of -15 kV. […] Data collection and peak area analysis were performed by the P/ACE MDQ software 32 KARAT obtained from Beckman Coulter (Fullerton, CA, USA).

[1] = fluorescent substrate PSB-017621A 0.5 µM, read-out: Ki ± SEM
[2] = ratio of Ki values, fluorescence CE assay
[3] = screening at 10 µM, fluorescent substrate PSB-017621A 0.5 µM

Ki [1]	inhibition at 10 µM [3]	Structure (SMILES)	other results
40.1 ± 7 µM		CN(C)c1ncnc2c1ncn2[C@@H]1O[C@H](COP(=O)(O)OP(=O)(O)C(Br)(Br)P(=O)(O)O)[C@@H](O)[C@H]1O [Compound 24, (Dibromo((((((2R,3S,4R,5R)-5-(6-(dimethylamino)-9H-purin-9-yl)-3,4-dihydroxytetrahydro-furan-2-yl)methoxy)-(hydroxy)phosphoryl)oxy)(hydroxy)phosphoryl)methyl)-phosphonic Acid]	fold decrease in CD39 potency compared to I [2]: 41 fold
6.48 ± 2.6 µM		CCN(C)c1ncnc2c1ncn2[C@@H]1O[C@H](COP(=O)(O)OP(=O)(O)C(Br)(Br)P(=O)(O)O)[C@@H](O)[C@H]1O [Compound 25, (Dibromo((((((2R,3S,4R,5R)-5-(6-(ethyl(methyl)amino)-9H-purin-9-yl)-3,4-dihydroxytetra-hydrofuran-2-yl)methoxy)-(hydroxy)phosphoryl)oxy)(hydroxy)phosphoryl)methyl)-phosphonic Acid]	fold decrease in CD39 potency compared to I [2]: about 7 fold
4.04 ± 2.12 µM		CCCN(C)c1ncnc2c1ncn2[C@@H]1O[C@H](COP(=O)(O)OP(=O)(O)C(Br)(Br)P(=O)(O)O)[C@@H](O)[C@H]1O [Compound 26, (Dibromo((((((2R,3S,4R,5R)-3,4-dihydroxy-5-(6-(methyl-(propyl)amino)-9H-purin-9-yl)tetra-hydrofuran-2-yl)-methoxy)(hydroxy)phosphoryl)oxy)(hydroxy)phosphoryl)-methyl)phosphonic Acid]	
2.68 ± 1.11 µM		CCCN(CCC)c1ncnc2c1ncn2[C@@H]1O[C@H](COP(=O)(O)OP(=O)(O)C(Br)(Br)P(=O)(O)O)[C@@H](O)[C@H]1O [Compound 27, (Dibromo((((((2R,3S,4R,5R)-5-(6-(dipropylamino)-9H-purin-9-yl)-3,4-dihydroxytetrahydro-furan-2-yl)methoxy)-(hydroxy)phosphoryl)oxy)(hydroxy)phosphoryl)methyl)-phosphonic Acid]	
2.22 ± 0.02 µM		CCCN(CC)c1ncnc2c1ncn2[C@@H]1O[C@H](COP(=O)(O)OP(=O)(O)C(Br)(Br)P(=O)(O)O)[C@@H](O)[C@H]1O [Compound 28, (Dibromo((((((2R,3S,4R,5R)-5-(6-(ethyl(propyl)amino)-9H-purin-9-yl)-3,4-dihydroxytetra-hydrofuran-2-yl)methoxy)-(hydroxy)phosphoryl)oxy)(hydroxy)phosphoryl)methyl)-phosphonic Acid]	
> 10 µM	4%	O=P(O)(OC[C@H]1O[C@@H](n2cnc3c(NCc4ccccc4)ncnc32)[C@H](O)[C@@H]1O)OP(=O)(O)C(Br)(Br)P(=O)(O)O [Compound 29, (((((((2R,3S,4R,5R)-5-(6-(Benzylamino)-9H-purin-9-yl)-3,4-dihydroxytetrahydrofuran-2-yl)methoxy)(hydroxy)-phosphoryl)oxy)(hydroxy)phosphoryl)dibromomethyl)-phosphonic Acid]	CD39 inhibition (in words): abolishment of the CD39-inhibiting activity
4.82 ± 0.21 µM		O=P(O)(OC[C@H]1O[C@@H](n2cnc3c(NCCc4ccccc4)ncnc32)[C@H](O)[C@@H]1O)OP(=O)(O)C(Br)(Br)P(=O)(O)O [Compound 30, (Dibromo((((((2R,3S,4R,5R)-3,4-dihydroxy-5-(6-(phenethylamino)-9H-purin-9-yl)tetrahydrofuran-2-yl)-methoxy)(hydroxy)phosphoryl)oxy)(hydroxy)phosphoryl)-methyl)phosphonic Acid]	
5.72 ± 0.86 µM		CNc1ncnc2c1nc(NC1CC1)n2[C@@H]1O[C@H](COP(=O)(O)OP(=O)(O)C(Br)(Br)P(=O)(O)O)[C@@H](O)[C@H]1O [Compound 32, (Dibromo((((((2R,3S,4R,5R)-5-(8-(cyclopropylamino)-6-(methylamino)-9H-purin-9-yl)-3,4-di-hydroxytetrahydrofuran-2-yl)methoxy)(hydroxy)-phosphoryl)oxy)(hydroxy)phosphoryl)methyl)phosphonic-Acid]	
~10 µM	54%	CCCCNc1nc2c(N(C)C)ncnc2n1[C@@H]1O[C@H](COP(=O)(O)OP(=O)(O)C(Br)(Br)P(=O)(O)O)[C@@H](O)[C@H]1O [Compound 34, (Dibromo((((((2R,3S,4R,5R)-5-(8-(butylamino)-6-(dimethylamino)-9H-purin-9-yl)-3,4-di-hydroxytetrahydrofuran-2-yl)methoxy)(hydroxy)-phosphoryl)oxy)(hydroxy)phosphoryl)methyl)-phosphonic Acid]	
~10 µM	59%	CCN(CC)c1ncnc2c1nc(NC)n2[C@@H]1O[C@H](COP(=O)(O)OP(=O)(O)C(Br)(Br)P(=O)(O)O)[C@@H](O)[C@H]1O [Compound 35, (Dibromo((((((2R,3S,4R,5R)-5-(6-(diethylamino)-8-(methylamino)-9H-purin-9-yl)-3,4-di-hydroxytetrahydrofuran-2-yl)methoxy)(hydroxy)phosphoryl)-oxy)(hydroxy)phosphoryl)methyl)phosphonic Acid]	
> 10 µM	39%	CCCCSc1nc2c(NC)ncnc2n1[C@@H]1O[C@H](COP(=O)(O)OP(=O)(O)C(Br)(Br)P(=O)(O)O)[C@@H](O)[C@H]1O [Compound 36, (Dibromo((((((2R,3S,4R,5R)-5-(8-(butylthio)-6-(methylamino)-9H-purin-9-yl)-3,4-dihydroxy-tetrahydrofuran-2-yl)methoxy)(hydroxy)phosphoryl)oxy)-(hydroxy)phosphoryl)methyl)phosphonic Acid]	
5.26 ± 0.22 µM		Nc1ncnc2c1ncn2[C@@H]1O[C@H](COP(=O)(O)OP(=O)(O)C(Br)(Br)P(=O)(O)O)[C@@H](O)[C@H]1O [Compound 38, (((((((2R,3S,4R,5R)-5-(6-amino-9H-purin-9-yl)-3,4-dihydroxytetrahydrofuran-2-yl)methoxy)-(hydroxy)-phosphoryl)oxy)(hydroxy)phosphoryl)dibromomethyl)-phosphonic Acid]	IC50 (in words): low micromolar range; fold decrease in CD39 potency compared to I [2]: about 5 fold
9.53 ± 1.46 µM		Nc1ncnc2c1ncn2[C@@H]1O[C@H](COP(=O)(O)OP(=O)(O)C(Cl)(Cl)P(=O)(O)O)[C@@H](O)[C@H]1O [Compound 39, (((((((2R,3S,4R,5R)-5-(6-Amino-9H-purin-9-yl)-3,4-dihydroxytetrahydrofuran-2-yl)methoxy)-(hydroxy)-phosphoryl)oxy)(hydroxy)phosphoryl)dichloromethyl)-phosphonic Acid]	IC50 (in words): low micromolar range; fold less potent than dibromo-derivative 38 at CD39 [2]: about 2 fold
		Nc1ncnc2c1ncn2[C@@H]1O[C@H](COP(=O)(O)CP(=O)(O)O)[C@@H](O)[C@H]1O [Compound 42, α,β-Methylene-ADP, reference compound]	Ki (Ki ± SEM, fluorescent substrate PSB-017621A 0.5 µM): > 10 µM; inhibition at 10 µM: 14%

Structure (SMILES)	Ki [1]	inhibition at 10 µM [3]	other results
Nc1ncnc2c1ncn2[C@@H]1O[C@H](COP(=O)(O)OP(=O)(O)CP(=O)(O)O)[C@@H](O)[C@H]1O [Compound 43, β,γ-Methylene-ATP, reference compound]	> 10 µM	23%	CD39 inhibition (in words): virtually inactive; also recorded: no significant inhibition
